Tests used:
[1] = Rat hepatocyte stability experiment; type: in vitro ADME; conditions: for Residual percentage (%) 0 min / Residual percentage (%) 5 min / Residual percentage (%) 15 min / Residual percentage (%) 30 min / Residual percentage (%) 60 min / Residual percentage (%) 120 min: rat hepatocytes, average value; for half-life at 1 μM: rat, rat hepatocytes (suspension)
Description: In William medium E, dilute the 37° C. rat hepatocyte suspension to an appropriate density (viable cell density=2×10^6 cells/mL). In addition, a 2× quantification solution (the concentration of the test compound was 2 μM) was additionally prepared in William's medium E. The hepatocyte solution and 2× quantification solution were preheated in a water bath of 37° C. 40 µL of the preheated hepatocyte solution (2×10^6 cells/mL) was added into the designated wells for 5, 15, 30, 60, and 120 min, and add 40 µL of the preheated 2× quantification solution and start timing. An assay plate was placed in a 37° C., 5% CO2 incubator with shaking at 110 rpm. At 5, 15, 30, 60, and 120 minutes, 240 μL of ACN containing IS was added to each well. The plate was then sealed and stored in a −35° C. freezer. After collecting at all time points, the plate was shaken for 2 minutes and then centrifuging was performed for 15 minutes at 6000 rmp. 100 μL of supernatant from each well was transferred to a 96-well sample plate containing 100 μL of water for LC/MS analysis, determination of compound concentrations, calculation of rate constants and half-lives.

[2] = Pharmacokinetic evaluation in SD rats; type: in vivo
Description: Pharmacokinetics and oral bioavailability were tested in SD rats. According to the solubility of the drug, a single dose was administered orally, intravenously or by intraperitoneal injection. Animal blood samples were collected at different time points (0, 0.5, 1, 2, 4, 6, 8, and 24 hours), anticoagulated with heparin, and centrifuged to take the supernatant. Blood samples were analyzed by HPLC-MS. DAS2.1 was used for data analysis to detect half-life (T1/2), maximum blood concentration (Cmax), time to peak (Tmax), area under the drug-time curve (AUC), and bioavailability (BA) and other pharmacokinetic data.

TRKs (TRK1, TRK2, TRK3) = experiment: Kinase activity on TRKs, summary statements; type: biochemical; conditions: summary statement
From the text: Kinase activity assay: Z′-LYTE™ technology (detection by fluorescence, enzyme-conjugated format, based on the difference in sensitivity of phosphorylated and non-phosphorylated peptides to proteolytic cleavage) was applied, and using the principle of fluorescence resonance energy transfer (FRET), a Z′-LYTE™ FRET peptide substrate (Z′-LYTE™ Tyrosine 1 Peptide Substrate, Invitrogen, PV3190), and a secondary reaction were used to detect the inhibitory activity of the compounds on TRKs (TRK1, TRK2, TRK3) (life technologies, PV3144, PV3616, PV3617).
Enzymatic reaction: In a 384-well plate, 5 μL of an enzyme-substrate system (50 mM HEPES pH 7.5, 0.01% BRIJ-35, 10 mM MgCl2, 1 mM EGTA, 2 μM Tyr 01 Peptide Substrate) was added and 5 nL of compound (concentration gradient) was transferred thereto by using the echo520 ultramicro liquid pipetting system. After shaking for 10-20 min at room temperature, 200 nL, 12.5 nL and 25 nL of ATP (final concentrations are 400 uM, 25 uM and 50 uM, respectively) were transferred by using the echo520 ultramicro liquid pipetting system. After shaking and mixing, centrifuging was performed. A reaction was carried out at 30° C. in the dark for 1.5 hours.
Assay reaction: 2.54 of Development Solution (1:128 dilution) was added in each well, and incubated at 37° C. in the dark for 1 hour, and then 5 μL of Stop Reagent was added.
Plate reading: fluorescence signals were detected using a Perkin Elmer EnVision Multimode Plate Reader (excitation at 400 nm, and emission at 460 nm, and 535 nm).
Calculation: the inhibition rate of each well was calculated by the fully active well and control signal wells. The data were analyzed as follows:
Phosphorylation ratio=1−{(emission ratio×F100%−C100%)/[C0%−C100%+emission ratio×(F100%−F0%)]}×100;
Inhibition rate=100×(1−compound phosphorylation ratio/negative control phosphorylation ratio).
IC50 values were calculated by using GraphPad Prism 5.0 software.

BaF3-CD74-NTRK1 = target: T1, BaF3-CD74-NTRK1 (Homo sapiens, UniProt P04629); experiment: Cell proliferation inhibition (CCK-8), BaF3-CD74-NTRK1 stable strain; type: cell-based, mouse; conditions: BaF3-CD74-NTRK1, 72 hours
T1 construct: fused on or other part: P04233 (HLA class II histocompatibility antigen gamma chain)
T1 sequence (P04629 510-796 limits assumed): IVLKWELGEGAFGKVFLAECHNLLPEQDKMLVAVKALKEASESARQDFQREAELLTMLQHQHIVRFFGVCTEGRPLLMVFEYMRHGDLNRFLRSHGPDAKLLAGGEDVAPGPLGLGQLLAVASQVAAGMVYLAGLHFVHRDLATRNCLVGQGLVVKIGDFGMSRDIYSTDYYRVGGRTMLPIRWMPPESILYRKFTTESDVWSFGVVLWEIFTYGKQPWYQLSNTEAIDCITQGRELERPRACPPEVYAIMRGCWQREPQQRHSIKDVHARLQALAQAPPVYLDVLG
In short: (§1)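 Ba/F3 cells stably electroporated with ETV6-NTRK3, CD74-NTRK1 or ETV6-NTRK2, selected with G418 and grown without IL3, then cloned by limiting dilution.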

BaF3-ETV6-NTRK2 = target: T2, BaF3-ETV6-NTRK2 (Homo sapiens, UniProt Q16620); experiment: Cell proliferation inhibition (CCK-8), BaF3-ETV6-NTRK2 stable strain; type: cell-based, mouse; conditions: BaF3-ETV6-NTRK2, 72 hours
T2 construct: fused on or other part: P41212 (Transcription factor ETV6)
T2 sequence (Q16620 538-822 limits assumed): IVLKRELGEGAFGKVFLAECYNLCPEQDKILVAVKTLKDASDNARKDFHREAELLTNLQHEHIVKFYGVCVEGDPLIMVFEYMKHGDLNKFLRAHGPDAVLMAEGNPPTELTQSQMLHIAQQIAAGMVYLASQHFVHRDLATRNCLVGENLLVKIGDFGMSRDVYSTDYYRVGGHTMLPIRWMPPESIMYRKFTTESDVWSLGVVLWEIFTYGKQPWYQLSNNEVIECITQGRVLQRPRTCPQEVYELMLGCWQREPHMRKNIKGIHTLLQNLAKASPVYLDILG
In short: as §1

BaF3-ETV6-NTRK3 = target: T3, BaF3-ETV6-NTRK3 (Homo sapiens, UniProt Q16288); experiment: Cell proliferation inhibition (CCK-8), BaF3-ETV6-NTRK3 stable strain; type: cell-based, mouse; conditions: BaF3-ETV6-NTRK3, 72 hours
T3 construct: fused on or other part: P41212 (Transcription factor ETV6)
T3 sequence (Q16288 whole entry, the tested form may be a part): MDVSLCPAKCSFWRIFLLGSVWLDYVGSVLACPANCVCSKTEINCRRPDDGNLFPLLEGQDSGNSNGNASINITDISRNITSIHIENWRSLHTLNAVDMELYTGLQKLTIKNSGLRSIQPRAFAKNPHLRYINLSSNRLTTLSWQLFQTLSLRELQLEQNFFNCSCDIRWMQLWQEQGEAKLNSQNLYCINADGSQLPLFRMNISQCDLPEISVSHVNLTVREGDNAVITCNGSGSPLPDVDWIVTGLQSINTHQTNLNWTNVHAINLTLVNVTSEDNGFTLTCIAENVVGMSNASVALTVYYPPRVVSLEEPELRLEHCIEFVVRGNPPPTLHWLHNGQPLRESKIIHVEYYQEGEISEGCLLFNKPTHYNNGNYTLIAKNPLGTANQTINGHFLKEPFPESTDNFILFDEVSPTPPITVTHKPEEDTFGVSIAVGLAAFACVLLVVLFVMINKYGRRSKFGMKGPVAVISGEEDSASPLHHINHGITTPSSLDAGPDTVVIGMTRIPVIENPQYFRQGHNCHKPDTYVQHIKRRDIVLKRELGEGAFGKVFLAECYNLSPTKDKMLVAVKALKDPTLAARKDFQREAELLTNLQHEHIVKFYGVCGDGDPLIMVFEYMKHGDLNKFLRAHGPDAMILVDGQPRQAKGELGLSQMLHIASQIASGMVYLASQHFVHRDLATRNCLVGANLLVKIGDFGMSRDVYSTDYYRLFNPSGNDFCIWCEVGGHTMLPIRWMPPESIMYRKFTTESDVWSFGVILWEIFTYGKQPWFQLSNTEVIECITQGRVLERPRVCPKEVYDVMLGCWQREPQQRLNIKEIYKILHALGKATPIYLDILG
In short: as §1

Ba/F3-TRK stable strains = experiment: Cell proliferation of Ba/F3-TRK stable strains, summary statements; type: cell-based, mouse; conditions: summary statement
Description: The brief steps of stable strain construction are as follows: construct a pCDNA3.1(+) plasmid vector carrying genes such as CD74-NTRK1, ETV6-NTRK2 and ETV6-NTRK3; the plasmid was electroporated into Ba/F3 cells using the Amaxa® Cell Line Nucleofector® Kit V; 48 hours after electroporated, G418 with a final concentration of 1000 μg/ml was added for screening for two weeks, and then IL3 was removed, and continued screening to obtain polyclonal stable strains; then single clones were selected by a limiting dilution method. The stable strains were then identified using positive drugs, WB and gene sequencing; and the monoclonal clones that were identified as completely correct may be used for the study of cell proliferation inhibitory activity of inhibitors.
Cell proliferation inhibition activity study: the cells in the logarithmic growth phase were seeded into 96-well plates at 8000-12000 cells/well, and inhibitors at different concentrations (0-10 μM) were added the next day, and incubation was continued for 72 hours; then 10 μL of CCK-8 reagent was added to each well, and the incubation was continued for 1-3 hours; and then use a super microplate reader to measure their absorbance values at 450 nm and 650 nm. The half-inhibition concentration (IC50) was calculated using GraphPad Prism 8.0.0.

TRKA = target: T4, TRKA (Homo sapiens, UniProt P04629); experiment: Z′-LYTE kinase activity assay, TRKA; type: biochemical; conditions: ATP 400 uM
T4 construct: purchased life technologies PV3144
T4 sequence (P04629 440-796 limits assumed): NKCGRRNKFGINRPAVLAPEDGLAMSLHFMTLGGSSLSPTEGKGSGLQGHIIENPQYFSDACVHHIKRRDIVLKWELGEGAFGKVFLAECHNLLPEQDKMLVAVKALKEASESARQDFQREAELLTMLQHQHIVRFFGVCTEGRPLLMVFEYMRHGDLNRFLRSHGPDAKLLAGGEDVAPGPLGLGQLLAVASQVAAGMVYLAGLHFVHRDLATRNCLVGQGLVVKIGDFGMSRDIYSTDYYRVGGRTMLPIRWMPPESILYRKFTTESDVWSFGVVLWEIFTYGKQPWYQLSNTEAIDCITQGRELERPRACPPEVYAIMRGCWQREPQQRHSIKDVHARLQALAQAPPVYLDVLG
In short: (§2)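 IC50 values were fitted to inhibition calculated from the emission-ratio-based phosphorylation ratio relative to negative control, across a compound concentration gradient.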

TRKB = target: T5, TRKB (Homo sapiens, UniProt Q16620); experiment: Z′-LYTE kinase activity assay, TRKB; type: biochemical; conditions: ATP 25 uM
T5 construct: purchased life technologies PV3616
T5 sequence (Q16620 32-822): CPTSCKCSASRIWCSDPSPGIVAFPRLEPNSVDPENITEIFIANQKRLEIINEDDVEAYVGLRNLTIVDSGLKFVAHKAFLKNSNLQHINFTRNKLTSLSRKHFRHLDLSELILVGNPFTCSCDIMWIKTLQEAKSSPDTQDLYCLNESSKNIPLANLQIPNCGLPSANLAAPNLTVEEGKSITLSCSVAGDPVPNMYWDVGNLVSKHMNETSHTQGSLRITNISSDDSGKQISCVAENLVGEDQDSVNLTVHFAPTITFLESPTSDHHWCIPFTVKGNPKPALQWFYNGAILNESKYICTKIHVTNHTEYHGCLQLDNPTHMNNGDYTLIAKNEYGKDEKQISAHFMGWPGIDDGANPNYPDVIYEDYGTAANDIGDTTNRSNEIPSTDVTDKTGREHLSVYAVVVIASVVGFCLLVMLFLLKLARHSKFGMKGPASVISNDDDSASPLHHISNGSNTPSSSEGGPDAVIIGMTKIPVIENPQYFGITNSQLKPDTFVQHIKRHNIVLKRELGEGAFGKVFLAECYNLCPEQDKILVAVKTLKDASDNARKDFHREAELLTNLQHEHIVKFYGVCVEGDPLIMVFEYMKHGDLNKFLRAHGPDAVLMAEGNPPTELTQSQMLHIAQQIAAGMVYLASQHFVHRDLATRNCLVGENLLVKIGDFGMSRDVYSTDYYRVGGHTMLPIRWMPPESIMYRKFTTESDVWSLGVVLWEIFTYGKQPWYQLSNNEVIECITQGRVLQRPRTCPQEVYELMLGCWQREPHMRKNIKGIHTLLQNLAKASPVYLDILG
In short: as §2

TRKC = target: T6, TRKC (Homo sapiens, UniProt Q16288); experiment: Z′-LYTE kinase activity assay, TRKC; type: biochemical; conditions: ATP 50 uM
T6 construct: purchased life technologies PV3617
T6 sequence (Q16288 32-839): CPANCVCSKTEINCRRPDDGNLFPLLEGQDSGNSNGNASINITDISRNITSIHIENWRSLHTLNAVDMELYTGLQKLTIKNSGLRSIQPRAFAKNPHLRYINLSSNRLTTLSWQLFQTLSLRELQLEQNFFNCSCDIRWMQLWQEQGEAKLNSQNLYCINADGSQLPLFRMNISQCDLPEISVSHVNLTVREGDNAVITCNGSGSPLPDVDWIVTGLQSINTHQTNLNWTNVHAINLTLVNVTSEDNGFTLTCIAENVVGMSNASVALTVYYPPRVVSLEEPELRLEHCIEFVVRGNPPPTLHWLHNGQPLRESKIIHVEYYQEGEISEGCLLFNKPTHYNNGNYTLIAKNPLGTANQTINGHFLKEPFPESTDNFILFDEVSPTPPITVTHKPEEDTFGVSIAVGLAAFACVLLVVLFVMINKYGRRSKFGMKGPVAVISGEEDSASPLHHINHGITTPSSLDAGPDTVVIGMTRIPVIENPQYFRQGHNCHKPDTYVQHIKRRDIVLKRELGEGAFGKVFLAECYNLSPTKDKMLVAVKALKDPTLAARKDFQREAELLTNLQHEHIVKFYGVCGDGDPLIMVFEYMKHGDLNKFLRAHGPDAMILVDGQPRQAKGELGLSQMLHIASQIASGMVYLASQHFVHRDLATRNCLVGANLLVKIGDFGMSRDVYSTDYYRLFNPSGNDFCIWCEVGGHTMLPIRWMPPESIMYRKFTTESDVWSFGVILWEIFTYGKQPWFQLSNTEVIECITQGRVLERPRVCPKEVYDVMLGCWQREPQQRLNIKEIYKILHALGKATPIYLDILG
In short: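 Recombinant TRK kinase tested in a Z′-LYTE FRET assay with 2 μM Tyr 01 peptide substrate in 50 mM HEPES pH 7.5, 10 mM MgCl2, 1 mM EGTA, 0.01% BRIJ-35. IC50 obtained by curve fitting.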

SMILES	Residual percentage (%) 0 min [1] [%]	Residual percentage (%) 5 min [1] [%]	Residual percentage (%) 15 min [1] [%]	Residual percentage (%) 30 min [1]	Residual percentage (%) 60 min [1]	Residual percentage (%) 120 min [1]	half-life at 1 μM [1] [min]	IC50 (BaF3-CD74-NTRK1) [nM]	IC50 (BaF3-ETV6-NTRK2) [nM]	IC50 (BaF3-ETV6-NTRK3) [nM]	IC50 (TRKA) [nM]	IC50 (TRKB) [nM]	IC50 (TRKC) [nM]	other results
C[C@@H](Nc1ccc2[nH]nc(/C=C/c3ccccn3)c2c1)c1cc(F)cc(F)c1 [DYX-244-1, (R,E)-N-(1-(3,5-difluorophenyl)ethyl)-3-(2-(pyridin-2-yl)vinyl)-1H-indazol-5-amine]	100.00	71.83	48.63	14.84%	8.20%	5.40%	11.1	–	–	–	–	–	–	Area under the drug-time curve (0-t) ([2]; intravenous injection, 2 mg/kg): 3.68 µM·h; Area under the drug-time curve (0-∞) ([2]; intravenous injection, 2 mg/kg): 3.69 µM·h; Half-life ([2]; intravenous injection, 2 mg/kg): 1.39 h; Maximum blood concentration ([2]; intravenous injection, 2 mg/kg): 6.77 µM; Removal rate ([2]; intravenous injection, 2 mg/kg): 1.44 L/h/kg; Time to Peak ([2]; intravenous injection, 2 mg/kg): 0.08 h; Bioavailability (%) ([2]; oral 10 mg/kg vs intravenous 2 mg/kg): 8.79%; Area under the drug-time curve (0-t) ([2]; oral administration, 10 mg/kg): 1.62 µM·h; Area under the drug-time curve (0-∞) ([2]; oral administration, 10 mg/kg): 1.64 µM·h; Half-life ([2]; oral administration, 10 mg/kg): 1.13 h; Maximum blood concentration ([2]; oral administration, 10 mg/kg): 0.36 µM; Time to Peak ([2]; oral administration, 10 mg/kg): 2.00 h; inhibitory activity against TRKs kinase (in words) (TRKs (TRK1, TRK2, TRK3)): strong inhibitory activity
C[C@@H](Nc1cnc2[nH]nc(/C=C/c3ccccn3)c2c1)c1cc(F)cc(F)c1 [DYX-318, (R,E)-N-(1-(3,5-difluorophenyl)ethyl)-3-(2-(pyridin-2-yl)vinyl)-1H-pyrazolo[3,4-b]pyridin-5-amine]	100.00	27.83	12.24	1.36%	0.27%	0.20%	2.71	9.6	33.6	9.1	–	–	–	inhibitory activity against TRKs kinase (in words) (TRKs (TRK1, TRK2, TRK3)): strong inhibitory activity; inhibitory activity against cell proliferation of the Ba/F3-TRK stable strains (in words) (Ba/F3-TRK stable strains): strong inhibitory activity
C[C@]12CC[C@H]3[C@@H](CCC4=CC(=O)CC[C@@]43C)[C@@H]1CC[C@@H]2O [Testosterone, reference compound]	100.00	21.21	5.78	BQL	BQL	BQL	2.23	–	–	–	–	–	–	–
Fc1cc(F)cc(Cc2ccc3[nH]nc(/C=C/c4cccs4)c3c2)c1 [DYX-04, (E)-5-(3,5-difluorobenzyl)-3-(2-(thiophen-2-yl)vinyl)-1H-indazole]	–	–	–	–	–	–	–	174	728	240	21.8	32.4	5.1	–
Fc1cc(F)cc(Cc2ccc3[nH]nc(/C=C/c4cccnc4)c3c2)c1 [DYX-03, (E)-5-(3,5-difluorobenzyl)-3-(2-(pyridin-3-yl)vinyl)-1H-indazole]	–	–	–	–	–	–	–	126	157	75.2	4	10.9	8.6	–
O=S(=O)(c1cc(F)cc(F)c1)c1ccc2[nH]nc(/C=C/c3ccccn3)c2n1 [DYX-150, (E)-5-((3,5-difluorophenyl)sulfonyl)-3-(2-(pyridin-2-yl)vinyl)-1H-pyrazolo[4,3-b]pyridine]	–	–	–	–	–	–	–	65.2	163	120	3.3	9.4	4.1	–
Fc1cc(F)cc(NCc2ccc3[nH]nc(/C=C/c4ccccn4)c3c2)c1 [DYX-191, (E)-3,5-difluoro-N-((3-(2-(pyridin-2-yl)vinyl)-1H-indazol-5-yl)methyl)aniline]	–	–	–	–	–	–	–	264	667	503	9.1	37.1	16.6	–
Fc1cc(F)cc(Cc2ccc3[nH]nc(/C=C/c4ccncc4)c3c2)c1 [DYX-215, (E)-5-(3,5-difluorobenzyl)-3-(2-(pyridin-4-yl)vinyl)-1H-indazole]	–	–	–	–	–	–	–	147	170	110	3.3	22.4	20.9	–
Fc1cc(Cc2ccc3[nH]nc(C#Cc4ccccn4)c3c2)cc(F)c1F [DYX-075, 3-(pyridin-2-ylethynyl)-5-(3,4,5-trifluorobenzyl)-1H-indazole]	–	–	–	–	–	–	–	2480	> 10000	> 10000	> 1000	> 1000	> 1000	–

— patent publication US20220281821A1, “INDAZOLE COMPOUNDS AND THEIR PHARMACEUTICAL COMPOSITIONS” (Jinan University, priority 2019, published 2022)
